Target: 5-hydroxytryptamine receptor 2A (Rattus norvegicus, UniProt P14842)
Sequence (P14842 whole entry): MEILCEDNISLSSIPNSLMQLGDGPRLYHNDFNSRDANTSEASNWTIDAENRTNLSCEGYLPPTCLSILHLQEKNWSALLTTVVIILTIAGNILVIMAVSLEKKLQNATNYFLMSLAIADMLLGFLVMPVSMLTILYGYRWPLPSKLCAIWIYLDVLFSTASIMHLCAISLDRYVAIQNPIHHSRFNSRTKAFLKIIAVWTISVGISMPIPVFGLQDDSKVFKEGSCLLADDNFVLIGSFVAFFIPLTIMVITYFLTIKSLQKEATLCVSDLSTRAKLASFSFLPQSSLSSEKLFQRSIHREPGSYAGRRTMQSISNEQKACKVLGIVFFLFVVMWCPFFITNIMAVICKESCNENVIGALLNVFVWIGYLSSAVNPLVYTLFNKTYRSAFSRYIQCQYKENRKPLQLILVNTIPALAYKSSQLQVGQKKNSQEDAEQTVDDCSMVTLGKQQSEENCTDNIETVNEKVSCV

| Compound | Ki |
| --- | --- |
| CN1CCc2cc(Cl)c(O)cc2[C@@H](c2ccccc2)C1 [SCH 23390,R(+)] | 13.1 nM |
| CN1CCc2cc(Cl)c(O)cc2[C@H]2c3ccccc3CC[C@@H]21 | 321 nM |
